The record followed here is patent publication US20250179047A1, “5-[7-(3,4-DIHYDRO-1H-ISOQUINOLINE-2-CARBONYL)-1,2,3,4 TETRAHYDROISOQUINOLIN-6-YL]-1H-PYRROLE-3-CARBOXAMIDE DERIVATIVES, PHARMACEUTICAL COMPOSITIONS CONTAINING THEM AND THEIR USES AS PRO-APOPTOTIC AGENTS” (LES LABORATOIRES SERVIER, priority 2022, published 2025).

For orientation: IC50 means the point on the concentration scale where inhibition reaches its midpoint.

The test system of one data set is platelets. Description: Platelet depletion in SCID mice. In kind it is in vivo. The settings on record: 25 mg/kg IV bolus, vs control group; for Platelet loss (%) 6 h: 6 h after dosing; for Platelet loss (%) 24 h: 24 h after dosing. On the procedure:
(§1) Pharmacokinetic (PK) and platelet toxicity were investigated in SCID mice. Compounds were administered at 25 mg/kg by IV bolus, and formulated in PEG/Ethanol/NaCl 0.9% (40/10/50 v/v/v).
(§2) Blood samples (3 animals/time point and 3 time points/animal) were collected over 24 h after dosing: 0.05 h, 0.5 h, 1 h, 3 h, 6 h and 24 h for PK and 6 h and 24 h for platelets.
(§3) PK samples were analyzed by liquid chromatography using tandem mass spectrometry detection (LC-MS/MS) and platelet count (109/L) was measured using an hematology analyzer. Percentage of platelet loss was calculated at both time points (T+6 h and 24 h) as compared to a control group of 6 animals. PK parameters (Cinf and AUC24, which correspond to the concentration at the end of bolus administration and the area under curve over 24 h, respectively) were also determined using a non-compartmental analysis.

A short description of data set [1]: Pharmacokinetics in SCID mice. In kind it is in vivo. As to conditions: 25 mg/kg IV bolus; for PK parameters Cinf: concentration at the end of bolus administration; for AUC: mouse, blood, area under curve over 24 h, read-out: PK parameters AUC24. How it is done: as §1, §2, §3
Another data set deals with CYP3A4 (Homo sapiens (Human), UniProt P08684). Description: CYP3A4 inhibition determination in hepatic human microsomes. Format: in vitro ADME. The settings on record: LC/MS-MS of specific metabolite. On the procedure:
The inhibitory potential was determined on CYP3 Å4 enzyme using hepatic human microsomes. A range of concentrations (adapted based on the solubility) of the tested compound were incubated in presence of a substrate having a specific metabolite of CYP3 Å4 enzyme.
Then, the formation of the metabolite was quantified using LC/MS-MS analysis and a curve corresponding to the concentration of the metabolite in function of the concentration of the test compound allowed to the calculation of the IC50 value.

CYP3A4, sequence (P08684 whole entry): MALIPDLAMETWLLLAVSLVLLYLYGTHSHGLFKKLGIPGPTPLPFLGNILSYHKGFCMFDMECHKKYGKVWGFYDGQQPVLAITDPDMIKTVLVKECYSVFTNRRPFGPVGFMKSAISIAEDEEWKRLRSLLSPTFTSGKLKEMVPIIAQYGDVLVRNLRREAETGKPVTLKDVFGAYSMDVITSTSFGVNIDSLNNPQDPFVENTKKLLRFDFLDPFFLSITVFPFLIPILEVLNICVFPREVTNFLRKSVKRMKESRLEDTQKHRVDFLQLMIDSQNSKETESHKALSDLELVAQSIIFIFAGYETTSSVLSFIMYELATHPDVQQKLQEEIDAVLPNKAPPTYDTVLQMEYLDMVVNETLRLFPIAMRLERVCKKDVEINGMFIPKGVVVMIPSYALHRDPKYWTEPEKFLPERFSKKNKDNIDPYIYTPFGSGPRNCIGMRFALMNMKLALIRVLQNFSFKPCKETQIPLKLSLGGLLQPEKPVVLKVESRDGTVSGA

Take `Cc1c(N(C(=O)c2cc(-c3cc4c(cc3C(=O)N3Cc5ccccc5C[C@H]3C)CN(C(=O)Cc3ccc(OCCN5CCOCC5)cc3)CC4)n(C)c2C)c2ccc(O)cc2)cc(C#N)n1C` [Example 21, N-(5-cyano-1,2-dimethyl-1H-pyrrol-3-yl)-N-(4-hydroxyphenyl)-1,2-dimethyl-5-{7-[(3R)-3-methyl-1,2,3,4-tetrahydroisoquinoline-2-carbonyl]-2-(2-{4-[2-(morpholin-4-yl)ethoxy]phenyl}acetyl)-1,2,3,4-tetrahydroisoquinolin-6-yl}-1H-pyrrole-3-carboxamide]: in the data set on platelets, the “Platelet loss (%) 6 h” value was 58.4% and the “Platelet loss (%) 24 h” value is 30.3%. Moreover, in data set [1], the “PK parameters Cinf” value worked out at 21.0 µM and the AUC stood at 12 µM·h. The IC50 on CYP3A4 was determined as 6.2 µM.
`Cc1c(N(C(=O)c2cc(-c3cc4c(cc3C(=O)N3Cc5ccccc5C[C@H]3C)CN(C(=O)Cc3ccc(OCCC5CCOCC5)cc3)CC4)n(C)c2C)c2ccc(O)cc2)cc(C#N)n1C` [Example 27, N-(5-cyano-1,2-dimethyl-1H-pyrrol-3-yl)-N-(4-hydroxyphenyl)-1,2-dimethyl-5-{7-[(3R)-3-methyl-1,2,3,4-tetrahydroisoquinoline-2-carbonyl]-2-(2-{4-[2-(oxan-4-yl)ethoxy]phenyl}acetyl)-1,2,3,4-tetrahydroisoquinolin-6-yl}-1H-pyrrole-3-carboxamide]: in the data set on platelets, the “Platelet loss (%) 6 h” value is 18.6% and the “Platelet loss (%) 24 h” value is reported as 11.0%. In data set [1], the “PK parameters Cinf” value worked out at 12.2 µM and the AUC is 19.5 µM·h.
For `Cc1c(N(C(=O)c2cc(-c3cc4c(cc3C(=O)N3Cc5ccccc5C[C@H]3CN3CCCCC3)CN(C(=O)Cc3ccc(OCCN5CCOCC5)cc3F)CC4)n(C)c2C)c2ccc(O)cc2)cc(C#N)n1C` [Example 43, N-(5-cyano-1,2-dimethylpyrrol-3-yl)-5-[2-(2-{2-fluoro-4-[2-(morpholin-4-yl)ethoxy]phenyl}acetyl)-7-{[(3S)-3-(piperidin-1-ylmethyl)-3,4-dihydro-1H-isoquinolin-2-yl]carbonyl}-3,4-dihydro-1H-isoquinolin-6-yl]-N-(4-hydroxyphenyl)-1,2-dimethylpyrrole-3-carboxamide], in that order: 25.3%, 9.2%, 15.4 µM and 16.9 µM·h.
For `Cc1c(N(C(=O)c2cc(-c3cc4c(cc3C(=O)N3Cc5ccccc5C[C@H]3C)CN(C(=O)Cc3ccc(N5CCN6CCOC[C@@H]6C5)cc3F)CC4)n(C)c2C)c2ccc(O)cc2)cc(C#N)n1C` [Example 45, 5-[2-(2-{4-[(9aS)-octahydropyrazino[2,1-c][1,4]oxazin-8-yl]-2-fluorophenyl}acetyl)-7-[(3R)-3-methyl-1,2,3,4-tetrahydroisoquinoline-2-carbonyl]-1,2,3,4-tetrahydroisoquinolin-6-yl]-N-(5-cyano-1,2-dimethyl-1H-pyrrol-3-yl)-N-(4-hydroxyphenyl)-1,2-dimethyl-1H-pyrrole-3-carboxamide], in that order: 22.0%, 27.6%, 40.8 µM and 34.2 µM·h.
`COC[C@@H]1Cc2ccccc2CN1C(=O)c1cc2c(cc1-c1cc(C(=O)N(c3ccc(O)cc3)c3cc(C#N)n(C)c3C)c(C)n1C)CCN(C(=O)Cc1ccc(OCCC3CCOCC3)cc1F)C2` [Example 52, N-(5-cyano-1,2-dimethylpyrrol-3-yl)-5-[2-(2-{2-fluoro-4-[2-(oxan-4-yl)ethoxy]phenyl}acetyl)-7-{[(3S)-3-(methoxymethyl)-3,4-dihydro-1H-isoquinolin-2-yl]carbonyl}-3,4-dihydro-1H-isoquinolin-6-yl]-N-(4-hydroxyphenyl)-1,2-dimethylpyrrole-3-carboxamide]: in the data set with platelets, the “Platelet loss (%) 6 h” value was 34.3% and the “Platelet loss (%) 24 h” value is on record as 33.0%. In data set [1], the “PK parameters Cinf” value stood at 18.0 µM and the AUC was 33.7 µM·h.
For `Cc1c(N(C(=O)c2cc(-c3cc4c(cc3C(=O)N3Cc5ccccc5C[C@H]3C)CN(C(=O)Cc3ccc(OCCN5CCSCC5)cc3)CC4)n(C)c2C)c2ccc(O)cc2)cc(C#N)n1C` [Example 55, N-(5-cyano-1,2-dimethyl-1H-pyrrol-3-yl)-N-(4-hydroxyphenyl)-1,2-dimethyl-5-{7-[(3R)-3-methyl-1,2,3,4-tetrahydroisoquinoline-2-carbonyl]-2-(2-{4-[2-(thiomorpholin-4-yl)ethoxy]phenyl}acetyl)-1,2,3,4-tetrahydroisoquinolin-6-yl}-1H-pyrrole-3-carboxamide], in that order: 26.9%, 33.9%, 17.3 µM and 11.4 µM·h.
For the compound `Cc1c(C(=O)N(c2ccc(O)cc2)c2cc(C#N)n(C(F)F)c2C)cc(-c2cc3c(cc2C(=O)N2Cc4ccccc4C[C@H]2CN2CCCCC2)CN(C(=O)Cc2ccc(OCCN4CCOCC4)cc2)CC3)n1C` [Example 77], the IC50 on CYP3A4 was more than 5 µM.
For the compound `Cc1c(C(=O)N(c2ccc(O)cc2)c2cc(C#N)n(C(F)F)c2C)cc(-c2cc3c(cc2C(=O)N2Cc4ccccc4C[C@H]2CN2CCCCC2)CN(C(=O)Cc2ccc(OCCN4CCOCC4)cc2F)CC3)n1C` [Example 78, N-[5-cyano-1-(difluoromethyl)-2-methylpyrrol-3-yl]-5-[2-(2-{2-fluoro-4-[2-(morpholin-4-yl)ethoxy]phenyl}acetyl)-7-{[(3S)-3-(piperidin-1-ylmethyl)-3,4-dihydro-1H-isoquinolin-2-yl]carbonyl}-3,4-dihydro-1H-isoquinolin-6-yl]-N-(4-hydroxyphenyl)-1,2-dimethylpyrrole-3-carboxamide], the IC50 at CYP3A4 is more than 5 µM.
